Data reported in US20240228489A1, “POSITIVE ALLOSTERIC MODULATORS OF THE MUSCARINIC ACETYLCHOLINE RECEPTOR M1” (Vanderbilt University, priority 2021, published 2024).

What was measured:
human mAChR M1 [1] = target: T1, human mAChR M1 (Homo sapiens, UniProt P11229); experiment: mAChR M1 cell-based functional assay (calcium mobilization), agonist mode: compound alone, Emax relative to acetylcholine maximum; details: for Agonist Activity Human M1 EC50 / EC50: human mAChR M1
T1 sequence (P11229 1-460): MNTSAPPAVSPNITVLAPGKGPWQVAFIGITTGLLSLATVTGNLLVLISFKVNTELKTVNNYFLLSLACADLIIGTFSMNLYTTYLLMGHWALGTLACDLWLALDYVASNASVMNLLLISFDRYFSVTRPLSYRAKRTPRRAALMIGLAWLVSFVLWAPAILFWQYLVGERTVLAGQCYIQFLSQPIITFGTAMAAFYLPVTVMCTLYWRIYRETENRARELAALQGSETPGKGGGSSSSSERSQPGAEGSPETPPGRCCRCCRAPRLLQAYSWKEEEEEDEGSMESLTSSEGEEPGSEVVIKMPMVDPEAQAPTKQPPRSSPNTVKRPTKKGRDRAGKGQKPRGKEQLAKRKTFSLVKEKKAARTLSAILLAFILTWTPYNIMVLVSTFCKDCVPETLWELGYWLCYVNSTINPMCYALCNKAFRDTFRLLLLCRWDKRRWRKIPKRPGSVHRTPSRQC
Outline: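 Agonist activity is the concentration-dependent rise in intracellular calcium (Fluo-4, 1 Hz read) after compound addition, measured before any acetylcholine was added, in stable hM1 CHO-K1 cells. Curves were 11-point, 1:3 dilutions fitted by four-parameter logistic. Emax is given as a fraction of maximal acetylcholine response.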

human mAChR M1 [2] = target: T1, human mAChR M1; experiment: mAChR M1 cell-based functional assay (calcium mobilization), PAM mode: increase in the EC20 acetylcholine response
Outline: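 PAM readout is the concentration-dependent rise in the EC20 acetylcholine calcium signal, fitted to a four-parameter logistic (EC50, Emax). Compounds were preincubated from 4 s before ACh at 144 s (EC20) and 230 s (EC80). hM1-expressing CHO-K1 cells loaded with Fluo-4, FDSS ratio read.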

[3] = relative to the maximum for acetylcholine

Row | Structure (SMILES) | Agonist Activity Human M1 EC50 (human mAChR M1 [1]) | Agonist Activity Emax (human mAChR M1 [1]; [3]) [%] | EC50 (human mAChR M1 [2]) [nM] | PAM Activity Emax (human mAChR M1 [2]) [%] | Emax (human mAChR M1 [1]; [3]) [%] | Emax (human mAChR M1 [2]) [%] | EC50 (human mAChR M1 [1]) [nM]
1 | [2H]C1([2H])c2ncccc2C(=O)N1Cc1c(F)cc(-c2cc(F)c(Cl)c3nn(C)cc23)cc1F [Compound 77, 6-(4-(7-chloro-6-fluoro-2-methyl-2H-indazol-4-yl)-2,6-difluorobenzyl)-6,7-dihydro-5H-pyrrolo[3,4-b]pyridin-5-one-7,7-d2] | Inactive | 1 | 1350 | 47 |  |  | 
2 | [2H]C([2H])([2H])Oc1cnc2c(c1)C(=O)N(Cc1c(F)cc(-c3cccc4nn(C([2H])([2H])[2H])cc34)cc1F)C2([2H])[2H] [Compound 78, 6-(2,6-difluoro-4-(2-(methyl-d3)-2H-indazol-4-yl)benzyl)-3-(methoxy-d3)-6,7-dihydro-5H-pyrrolo[3,4-b]pyridin-5-one-7,7-d2] | Inactive |  | 100 |  | 6 | 77 | 
3 | [2H]C1([2H])c2ncccc2C(=O)N1Cc1c(F)cc(-c2cn(C)c(=O)c3nn(C)cc23)cc1F [Compound 79, 4-(3,5-difluoro-4-((5-oxo-5,7-dihydro-6H-pyrrolo[3,4-b]pyridin-6-yl-7,7-d2)methyl)phenyl)-2,6-dimethyl-2,6-dihydro-7H-pyrazolo[3,4-c]pyridin-7-one] |  |  | 793 |  | 16 | 79 | ≥ 10000
4 | [2H]C1([2H])c2ncccc2C(=O)N1Cc1c(F)cc(-c2cn(C)c(=O)c3c2cnn3C)cc1F [Compound 80, 4-(3,5-difluoro-4-((5-oxo-5,7-dihydro-6H-pyrrolo[3,4-b]pyridin-6-yl-7,7-d2)methyl)phenyl)-1,6-dimethyl-1,6-dihydro-7H-pyrazolo[3,4-c]pyridin-7-one] | Inactive |  | 2230 |  | 1 | 59 | 
5 | [2H]C1([2H])c2ncccc2C(=O)N1Cc1c(F)cc(-c2cc(C(F)F)cc3nn(C)cc23)cc1F [Compound 81, 6-(4-(6-(difluoromethyl)-2-methyl-2H-indazol-4-yl)-2,6-difluorobenzyl)-6,7-dihydro-5H-pyrrolo[3,4-b]pyridin-5-one-7,7-d2] | Inactive |  | 159 |  | 2 | 48 | 
6 | [2H]C([2H])([2H])Oc1cnc2c(c1)C(=O)N(Cc1ccc(-c3cccc4nn(C)cc34)cc1F)C2([2H])[2H] [Compound 82, 6-(2-fluoro-4-(2-methyl-2H-indazol-4-yl)benzyl)-3-(methoxy-d3)-6,7-dihydro-5H-pyrrolo[3,4-b]pyridin-5-one-7,7-d2] |  |  | 120 |  | 25 | 79 | 4930
7 | [2H]C([2H])([2H])Oc1cnc2c(c1)C(=O)N(Cc1ccc(-c3cccc4nn(C)cc34)cc1)C2([2H])[2H] [Compound 83, 3-(methoxy-d3)-6-(4-(2-methyl-2H-indazol-4-yl)benzyl)-6,7-dihydro-5H-pyrrolo[3,4-b]pyridin-5-one-7,7-d2] |  |  | 244 |  | 19 | 80 | 6230
8 | [2H]C1([2H])c2ncccc2C(=O)N1Cc1ccc(-c2cc(F)cc3nn(C)cc23)cc1C [Compound 84, 6-(4-(6-fluoro-2-methyl-2H-indazol-4-yl)-2-methylbenzyl)-6,7-dihydro-5H-pyrrolo[3,4-b]pyridin-5-one-7,7-d2] | Inactive |  | 1240 |  | 2 | 74 | 
9 | [2H]C1([2H])c2ncccc2C(=O)N1Cc1c(F)cc(-c2cc(Cl)cc3nn(C([2H])([2H])[2H])cc23)cc1F [Compound 85, 6-(4-(6-chloro-2-(methyl-d3)-2H-indazol-4-yl)-2,6-difluorobenzyl)-6,7-dihydro-5H-pyrrolo[3,4-b]pyridin-5-one-7,7-d2] | Inactive |  | 654 |  | 2 | 51 | 
10 | [2H]C1([2H])c2ncccc2C(=O)N1Cc1c(F)cc(-c2cc(F)cc3nn(C([2H])([2H])[2H])cc23)cc1F [Compound 86, 6-(2,6-difluoro-4-(6-fluoro-2-(methyl-d3)-2H-indazol-4-yl)benzyl)-6,7-dihydro-5H-pyrrolo[3,4-b]pyridin-5-one-7,7-d2] | Inactive |  | 237 |  | 2 | 46 | 
11 | [2H]C([2H])([2H])Oc1cc(-c2cc(F)c(CN3C(=O)c4cccnc4C3([2H])[2H])c(F)c2)c2cn(C([2H])([2H])[2H])nc2c1 [Compound 87, 6-(2,6-difluoro-4-(6-(methoxy-d3)-2-(methyl-d3)-2H-indazol-4-yl)benzyl)-6,7-dihydro-5H-pyrrolo[3,4-b]pyridin-5-one-7,7-d2] | Inactive |  | 819 |  | 11 | 69 | 
12 | [2H]C([2H])([2H])Oc1cc(-c2cc(F)c(CN3C(=O)c4cccnc4C3([2H])[2H])c(F)c2)c2cnn(C([2H])([2H])[2H])c2c1 [Compound 88, 6-(2,6-difluoro-4-(6-(methoxy-d3)-1-(methyl-d3)-1H-indazol-4-yl)benzyl)-6,7-dihydro-5H-pyrrolo[3,4-b]pyridin-5-one-7,7-d2] | Inactive |  | 2700 |  | 2 | 37 | 
13 | [2H]C1([2H])c2ncccc2C(=O)N1Cc1c(F)cc(-c2cc(Cl)c3nn(C)cc3c2)cc1F [Compound 89, 6-(4-(7-chloro-2-methyl-2H-indazol-5-yl)-2,6-difluorobenzyl)-6,7-dihydro-5H-pyrrolo[3,4-b]pyridin-5-one-7,7-d2] | Inactive |  | 88 |  | 1 | 46 | 
14 | [2H]C1([2H])c2ncccc2C(=O)N1Cc1c(F)cc(-c2cc(OC)cc3nn(C)cc23)cc1F [Compound 90, 6-(2,6-difluoro-4-(6-methoxy-2-methyl-2H-indazol-4-yl)benzyl)-6,7-dihydro-5H-pyrrolo[3,4-b]pyridin-5-one-7,7-d2] | Inactive |  | 1700 |  | 2 | 72 | 
15 | [2H]C1([2H])c2ncccc2C(=O)N1Cc1c(F)cc(-c2cn(C)c(=O)c3nn(C([2H])([2H])[2H])cc23)cc1F [Compound 91, 4-(3,5-difluoro-4-((5-oxo-5,7-dihydro-6H-pyrrolo[3,4-b]pyridin-6-yl-7,7-d2)methyl)phenyl)-6-methyl-2-(methyl-d3)-2,6-dihydro-7H-pyrazolo[3,4-c]pyridin-7-one] |  |  | 718 |  | 22 | 84 | 7740
16 | [2H]C1([2H])c2ncccc2C(=O)N1Cc1c(F)cc(-c2cn(C)c(=O)c3c2cnn3C([2H])([2H])[2H])cc1F [Compound 92, 4-(3,5-difluoro-4-((5-oxo-5,7-dihydro-6H-pyrrolo[3,4-b]pyridin-6-yl-7,7-d2)methyl)phenyl)-6-methyl-1-(methyl-d3)-1,6-dihydro-7H-pyrazolo[3,4-c]pyridin-7-one] | Inactive |  | 2400 |  | 2 | 54 | 
17 | [2H]C([2H])([2H])Oc1ccc(-c2cc(F)c(CN3C(=O)c4cccnc4C3([2H])[2H])c(F)c2)c2cn(C)nc12 [Compound 93, 6-(2,6-difluoro-4-(7-(methoxy-d3)-2-methyl-2H-indazol-4-yl)benzyl)-6,7-dihydro-5H-pyrrolo[3,4-b]pyridin-5-one-7,7-d2] |  |  | 131 |  | 21 | 76 | 3300
